Results published in patent publication US12465610B2, “Compounds and methods for the treatment of PKR-associated diseases” (Board of Regents, The University of Texas System, priority 2019, dated 2025).

Legend:
[1] = molecular target: PI3Kb (Homo sapiens, UniProt P42338); experiment: ADP-Glo kinase assay, high-throughput enzymatic screening (Reaction Biology); assay type: biochemical
[2] = molecular target: PKR coimmunoprecipitated with PI4K2A (Homo sapiens, UniProt Q9BTU6); assay type: cell-based
Chain of PKR coimmunoprecipitated with PI4K2A (Q9BTU6 whole entry, looked up): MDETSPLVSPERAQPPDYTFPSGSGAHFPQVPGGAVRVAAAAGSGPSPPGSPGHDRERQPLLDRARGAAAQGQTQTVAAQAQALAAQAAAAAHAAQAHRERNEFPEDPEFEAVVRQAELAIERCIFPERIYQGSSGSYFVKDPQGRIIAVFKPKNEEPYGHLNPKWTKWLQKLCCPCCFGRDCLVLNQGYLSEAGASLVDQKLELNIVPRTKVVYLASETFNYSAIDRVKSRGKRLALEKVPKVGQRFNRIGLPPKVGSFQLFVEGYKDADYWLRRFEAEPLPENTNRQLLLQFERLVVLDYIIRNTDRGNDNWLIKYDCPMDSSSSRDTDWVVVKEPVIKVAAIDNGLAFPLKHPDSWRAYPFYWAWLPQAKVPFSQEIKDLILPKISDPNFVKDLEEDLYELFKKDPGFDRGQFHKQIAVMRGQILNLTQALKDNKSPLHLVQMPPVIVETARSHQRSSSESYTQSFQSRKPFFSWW

[3] = molecular target: PI4K2A kinase (Homo sapiens, UniProt Q9BTU6); experiment: ADP-Glo kinase assay, high-throughput enzymatic screening (Reaction Biology)
Chain of PI4K2A kinase (Q9BTU6 whole entry): as the sequence (Q9BTU6 whole entry, looked up) above

[4] = system: PKR and p-PKR; experiment: Western blot of PKR and p-PKR protein expression; assay type: cell-based, human
[5] = molecular target: PI3Ka (Homo sapiens, UniProt P42336); experiment: ADP-Glo kinase assay, high-throughput enzymatic screening (Reaction Biology); assay type: biochemical
Chain of PI3Ka (P42336 whole entry): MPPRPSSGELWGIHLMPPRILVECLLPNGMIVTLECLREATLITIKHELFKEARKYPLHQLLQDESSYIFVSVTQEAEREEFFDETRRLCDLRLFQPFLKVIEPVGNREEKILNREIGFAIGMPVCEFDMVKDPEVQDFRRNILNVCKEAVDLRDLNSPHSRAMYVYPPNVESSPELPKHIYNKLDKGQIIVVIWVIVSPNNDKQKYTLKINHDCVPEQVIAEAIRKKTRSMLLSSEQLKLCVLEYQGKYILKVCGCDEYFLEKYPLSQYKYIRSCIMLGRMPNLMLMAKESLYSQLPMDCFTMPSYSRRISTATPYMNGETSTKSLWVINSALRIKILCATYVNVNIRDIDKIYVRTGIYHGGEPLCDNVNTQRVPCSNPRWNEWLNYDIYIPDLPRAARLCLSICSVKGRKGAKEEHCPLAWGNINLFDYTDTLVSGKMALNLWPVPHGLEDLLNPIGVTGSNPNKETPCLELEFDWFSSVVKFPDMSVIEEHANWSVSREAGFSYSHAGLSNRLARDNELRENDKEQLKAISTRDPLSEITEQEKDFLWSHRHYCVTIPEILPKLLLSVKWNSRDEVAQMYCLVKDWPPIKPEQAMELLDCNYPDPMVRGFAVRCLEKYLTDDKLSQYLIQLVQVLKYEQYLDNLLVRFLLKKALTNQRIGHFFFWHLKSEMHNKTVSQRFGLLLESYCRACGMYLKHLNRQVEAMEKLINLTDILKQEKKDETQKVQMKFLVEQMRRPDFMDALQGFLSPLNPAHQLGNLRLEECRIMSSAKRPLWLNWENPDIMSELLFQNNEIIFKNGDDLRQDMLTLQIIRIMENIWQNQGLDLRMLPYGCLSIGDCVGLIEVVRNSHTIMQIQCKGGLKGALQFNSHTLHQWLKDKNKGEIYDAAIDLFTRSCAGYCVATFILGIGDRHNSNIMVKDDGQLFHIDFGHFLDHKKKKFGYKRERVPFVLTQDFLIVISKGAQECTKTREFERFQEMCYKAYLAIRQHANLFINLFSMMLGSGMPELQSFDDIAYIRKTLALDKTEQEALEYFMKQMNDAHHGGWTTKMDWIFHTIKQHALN
Chain of PI3Ka (P27986 whole entry partner): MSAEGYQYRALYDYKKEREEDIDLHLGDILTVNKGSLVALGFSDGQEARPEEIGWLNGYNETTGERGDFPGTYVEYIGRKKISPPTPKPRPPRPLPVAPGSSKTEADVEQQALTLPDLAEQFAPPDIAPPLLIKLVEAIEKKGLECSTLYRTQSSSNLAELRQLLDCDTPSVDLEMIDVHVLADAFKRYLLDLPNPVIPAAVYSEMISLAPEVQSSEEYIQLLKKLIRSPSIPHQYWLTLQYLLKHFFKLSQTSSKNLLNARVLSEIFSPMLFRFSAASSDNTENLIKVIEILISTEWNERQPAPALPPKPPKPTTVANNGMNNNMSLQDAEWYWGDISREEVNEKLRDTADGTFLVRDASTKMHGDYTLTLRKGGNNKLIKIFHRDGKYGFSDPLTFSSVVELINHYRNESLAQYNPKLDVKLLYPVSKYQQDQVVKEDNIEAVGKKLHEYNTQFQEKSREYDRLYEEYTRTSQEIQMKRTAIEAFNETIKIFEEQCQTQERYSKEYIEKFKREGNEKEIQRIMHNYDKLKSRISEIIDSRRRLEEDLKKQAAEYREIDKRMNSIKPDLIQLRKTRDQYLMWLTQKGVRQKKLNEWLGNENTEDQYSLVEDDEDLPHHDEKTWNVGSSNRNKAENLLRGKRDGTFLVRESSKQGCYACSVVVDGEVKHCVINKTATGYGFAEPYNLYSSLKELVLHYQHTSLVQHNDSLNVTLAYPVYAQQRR

[6] = system: lysosomes and MVBs/exosomes; experiment: Transmission electron microscopy (TEM) of treated cells; assay type: cell-based, human
[7] = system: LOVO colon cancer cells; experiment: SRB cell viability assay; assay type: cell-based, human; settings: 72 hours after treatment
Description: PKR and PI4K2A expression are associated with poor prognosis in cancer patients: PKR and PI4K2A are encoded by the EIF2AK2 and PI4K2A genes, respectively. […] It was also examined the expression of PKR using immunohistochemical staining of five normal skin and five breast tumor samples and observed that all of the breast tumor cells had high cytoplasmic PKR expression (FIG. 7C). However, all of the normal skin cells had low cytoplasmic PKR expression, and some of them had high nuclear PKR expression. […] Furthermore, the association between EIF2AK2 or PI4K2A gene expression and overall survival was evaluated in colorectal cancer patients using the TCGA data set. […]
Cell viability assays: For SRB assays, cells (2-8×10^3/well in 100 μL of culture medium) were seeded in 96-well flat-bottomed plates and treated the next day with compounds at the indicated concentrations. […] The protein was stained with SRB, and the optical density at 570 nm was determined. Relative cell viability was calculated by setting the viability rate of the control cells (exposed only to dimethyl sulfoxide) at 100% and comparing the viability of the treated cells with that of the controls. […] The viability of leukemia cell lines was determined by using a 3-(4,5-dimethylthiazol-2-yl)-2,5-diphenyltetrazolium bromide assay. […]

[8] = molecular target: PI4KIIIa (Homo sapiens, UniProt P42356); experiment: ADP-Glo kinase assay, high-throughput enzymatic screening (Reaction Biology); assay type: biochemical
[9] = system: breast cancer cell lines; experiment: SRB cell viability assay; assay type: cell-based, human; settings: 72 hours after treatment
Description: (§1) The effects of Pac 1 and Pac 2 were next examined on PKR protein expression in HeLa cells using Western blot analysis. […] No reduction in normal cell viability was observed after treatment with Pac 1 or Pac 2 (FIGS. 5F and G). […] Because most of the cancer cell lines that were tested were more sensitive to Pac 1 than to Pac 2, Pac 1 was further investigated.
(§2) Cell viability assays: For SRB assays, cells (2-8×10^3/well in 100 μL of culture medium) were seeded in 96-well flat-bottomed plates and treated the next day with compounds at the indicated concentrations. After the indicated treatments, cells were fixed with trichloroacetic acid. The protein was stained with SRB, and the optical density at 570 nm was determined. Relative cell viability was calculated by setting the viability rate of the control cells (exposed only to dimethyl sulfoxide) at 100% and comparing the viability of the treated cells with that of the controls. The experiments were performed at least three times for each cell line. The viability of leukemia cell lines was determined by using a 3-(4,5-dimethylthiazol-2-yl)-2,5-diphenyltetrazolium bromide assay.
(§3) For the SRB assay, cells (2-8×10^3/well in 100 μL of culture medium) were seeded in 96-well flat-bottomed plates and treated the next day with compounds at the indicated concentrations. After treatment for the indicated times, cells were fixed with trichloroacetic acid. The cells were stained using SRB, and the optical density at 570 nm was determined. Relative cell viability was determined by setting the viability of the control cells (exposed only to dimethyl sulfoxide) at 100% and comparing their viability with that of the treated cells. The experiments were performed at least three times for each cell line.

[10] = system: A549; experiment: SRB cell viability assay; assay type: cell-based, human; settings: 72 hours after treatment
Description: as §1, §2, §3

[11] = system: H1299; experiment: SRB cell viability assay; assay type: cell-based, human; settings: 72 hours after treatment
Description: as §1, §2, §3

[12] = system: leukemia cell lines; experiment: 3-(4,5-dimethylthiazol-2-yl)-2,5-diphenyltetrazolium bromide viability assay; assay type: cell-based
Description: as §2

[13] = system: 127 human lung cancer cell lines; experiment: SRB assay, oncopanel of 127 lung cancer cell lines; assay type: cell-based
Description: Antiproliferative effect of Pac 1 and Pac 2 on an oncopanel of lung cancer cell lines: The antiproliferative effect of treatment with Pac1 were further tested on an oncopanel of 127 cell lines of various lung tumor origins. […] RPPA analysis of Pac 1-sensitive cells identified correlation with higher expression of GSK3 (FIG. 16B), and Pac 1-resistant cells correlation with higher expression of IRS1, Caveolin and PKCA (PS657) (FIG. 16B). Analyzed the Pac1 sensitivity with gene mutation observed that low Pac 1 IC50 correlated with VCAN and ZNF804A mutation, and high Pac 1 IC50 correlated with LOXHD1 and CDH12 mutation (FIG. 16C). VCAN mutant lung cancer cells are sensitive to treatment of Pac 1.
as §2

[14] = molecular target: PIM3 (Homo sapiens, UniProt Q86V86); experiment: High-throughput enzymatic screening; assay type: biochemical
[15] = molecular target: PKR (Homo sapiens, UniProt P19525); experiment: ADP-Glo kinase assay, high-throughput enzymatic screening (Reaction Biology); assay type: biochemical
Chain of PKR (P19525 whole entry): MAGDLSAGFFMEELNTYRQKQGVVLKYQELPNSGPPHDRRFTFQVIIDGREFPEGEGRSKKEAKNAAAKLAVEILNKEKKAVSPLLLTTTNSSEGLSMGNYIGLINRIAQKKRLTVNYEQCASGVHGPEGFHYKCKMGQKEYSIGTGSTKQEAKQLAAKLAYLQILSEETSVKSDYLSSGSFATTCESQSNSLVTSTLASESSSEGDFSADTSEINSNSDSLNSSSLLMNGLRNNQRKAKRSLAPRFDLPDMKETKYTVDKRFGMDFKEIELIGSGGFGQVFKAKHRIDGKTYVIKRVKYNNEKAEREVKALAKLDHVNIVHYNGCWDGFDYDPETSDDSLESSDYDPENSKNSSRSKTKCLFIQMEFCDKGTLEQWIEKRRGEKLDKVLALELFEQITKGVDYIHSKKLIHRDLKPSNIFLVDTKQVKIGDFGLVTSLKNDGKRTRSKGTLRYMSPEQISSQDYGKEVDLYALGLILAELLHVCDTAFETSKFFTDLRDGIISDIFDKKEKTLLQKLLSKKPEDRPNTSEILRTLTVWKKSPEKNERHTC

[16] = molecular target: PI4KIIIb (Homo sapiens, UniProt Q9UBF8); experiment: as above; assay type: biochemical
[17] = molecular target: PI3 Kg (Homo sapiens, UniProt P48736); experiment: as above; assay type: biochemical
Chain of PI3 Kg (P48736 whole entry): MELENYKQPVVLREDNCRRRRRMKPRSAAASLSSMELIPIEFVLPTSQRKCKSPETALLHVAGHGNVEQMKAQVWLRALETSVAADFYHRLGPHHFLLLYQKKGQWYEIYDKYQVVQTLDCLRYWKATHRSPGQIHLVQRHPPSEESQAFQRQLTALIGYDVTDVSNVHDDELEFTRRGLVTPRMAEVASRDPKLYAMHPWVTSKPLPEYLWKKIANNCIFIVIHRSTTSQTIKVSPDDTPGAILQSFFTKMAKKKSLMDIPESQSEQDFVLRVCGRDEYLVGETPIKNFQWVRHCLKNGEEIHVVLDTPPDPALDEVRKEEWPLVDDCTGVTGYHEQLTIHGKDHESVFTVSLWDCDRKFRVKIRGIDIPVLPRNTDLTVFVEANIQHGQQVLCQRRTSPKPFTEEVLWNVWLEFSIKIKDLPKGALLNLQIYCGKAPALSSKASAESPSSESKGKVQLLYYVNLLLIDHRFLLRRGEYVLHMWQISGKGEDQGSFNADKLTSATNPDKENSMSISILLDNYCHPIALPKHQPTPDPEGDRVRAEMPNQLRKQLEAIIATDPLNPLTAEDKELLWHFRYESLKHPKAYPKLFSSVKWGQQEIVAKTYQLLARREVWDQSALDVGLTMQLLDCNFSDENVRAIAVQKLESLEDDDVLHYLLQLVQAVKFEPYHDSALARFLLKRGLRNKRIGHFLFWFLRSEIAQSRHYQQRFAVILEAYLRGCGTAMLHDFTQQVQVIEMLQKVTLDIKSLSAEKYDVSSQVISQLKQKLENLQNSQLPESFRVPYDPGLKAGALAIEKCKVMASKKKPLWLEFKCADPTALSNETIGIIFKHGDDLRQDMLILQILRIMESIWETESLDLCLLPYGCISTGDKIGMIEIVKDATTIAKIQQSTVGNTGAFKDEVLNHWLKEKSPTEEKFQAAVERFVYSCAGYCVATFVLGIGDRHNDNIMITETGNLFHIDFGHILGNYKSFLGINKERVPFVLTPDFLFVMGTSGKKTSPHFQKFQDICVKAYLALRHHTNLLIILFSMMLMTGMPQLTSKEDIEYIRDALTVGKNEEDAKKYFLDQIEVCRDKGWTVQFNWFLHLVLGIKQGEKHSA

[18] = system: HeLa cells; experiment: SRB cell viability assay; assay type: cell-based, human; settings: 72 hours after treatment
Description: Anticancer effects of PKR-targeting compounds depend on PKR expression status: To identify compounds that can target lysosomes in PKR-positive cells or MVBs/exosomes in PKR-negative cells, the 10,000-compound ChemBridge library was screened for compounds with different effects on the growth of HeLa and HeLaPKRkd cells. […] SRB assays were next used to determine cell viability after treatment with Pac 1 or Pac 2.
as §2
Identification of PKR-associated compounds and cytotoxicity studies: The library of 10,000 compounds was screened for those with different effects on the growth of HeLa and HeLaPKRkd cells. […] Treated cells were observed under a microscope to detect morphologic changes, and their viability was determined using SRB assays 2 and 3 days after treatment. […]
as §3, with “After treatment for the indicated times, cells were fixed with trichloroacetic acid.” left out, “The experiments were performed at least three times for each cell line.” left out

O=C(N/N=C\c1c(O)ccc2ccccc12)c1cccc2cc[nH]c12 [Pac 1, N′—[(Z)-(2-Hydroxy-1-naphthyl)methylene]-1H-indole-7-carbohydrazide]
inhibition of kinase activity [1]: not other kinases
amount of PKR coimmunoprecipitated with PI4K2A [2]: decreased to undetectable levels
IC50 [3]: 2500 nM
PKR and p-PKR expression ([4]; A549 and H1299 cells, 5 μM, 72 hours): markedly reduced
expression of PKR and p-PKR ([4]; HeLa cells, 72 hours after treatment): significantly reduced
PKR, p-PKR, and PI4K2A expression ([4]; LOVO colon cancer cells, 72 hours, various doses): reduced PKR, p-PKR, and PI4K2A expression
PKR expression ([4]; breast cancer cell lines, 72 hours, various doses): reduced PKR expression
inhibition of kinase activity [5]: not other kinases
lysosomes by TEM ([6]; HeLa cells, 5 μM): destruction of lysosomes
lysosomes and MVBs/exosomes by TEM ([6]; HeLaPKRkd cells): a lack of lysosomes but enrichment of MVBs/exosomes
growth of LOVO colon cancer cells [7]: inhibited the growth
inhibition of kinase activity [8]: not other kinases
growth of breast cancer cell lines [9]: inhibited the growth
sensitivity (viability) of A549 cells [10]: more sensitive to treatment with Pac 1 than that with Pac 2
sensitivity (viability) of H1299 cells [11]: more sensitive to treatment with Pac 1 than that with Pac 2
growth of leukemia cell lines [12]: growth inhibition
IC50 ([13]; Homo sapiens, sensitive cell lines of the oncopanel of 127 lung cancer cell lines): 10 to 950 nM
sensitivity of VCAN mutant lung cancer cells ([13]; VCAN mutants versus VCAN wild-type cells): sensitive
share of cell lines sensitive ([13]; oncopanel of 127 cell lines of various lung tumor origins): Sixty-five
inhibition of PIM3/1 activity [14]: markedly inhibited
inhibition of PKR kinase activity [15]: did not inhibit
inhibition of kinase activity [16]: not other kinases
inhibition of kinase activity [17]: not other kinases
viability of HeLa cells [18]: suppressed more effectively by Pac 1 than by Pac 2
